# Data reported in patent US8871679B2, “Fungicidal mixtures comprising substituted 1-methylpyrazol-4-ylcarboxanilides” (BASF SE, priority 2008, dated 2014).
# Where two headings read alike, the source gives them in different places.
# What was measured:
# Type in all cases: cell-based
# Septoria tritici = assay: Microtiter test, activity against leaf blotch on wheat caused by Septoria tritici (Use Example 3); settings: for inhibition of growth at 16 ppm / inhibition of growth at 63 ppm / inhibition of growth at 4 ppm: Zymoseptoria tritici, 168 h, read-out: Observed efficacy
# Pyricularia oryzae = tested on: Pyricularia oryzae
# Alternaria solani = assay: Microtiter test, activity against Alternaria solani (Use Example 4); settings: 7 days
# Colletotrichum truncatum = assay: Microtiter test, activity against Colletotrichum truncatum (Use Example 5); settings: compound alone, 7 days
# Leptosphaerium nodorum = assay: Microtiter test, activity against Leptospharium nodorum (Use Example 6); settings: compound alone, 7 days
# Fusarium culmorum = assay: Microtiter test, activity against Fusarium culmorum (Use Example 7); settings: compound alone, 7 days
# [1] = Alternaria solani, 168 h, 63 ppm, compound alone, read-out: Observed efficacy
# [2] = Alternaria solani, 168 h, read-out: Observed efficacy
# [3] = 0.016 ppm, compound alone, day 7
# [4] = 0.25 ppm, compound alone, day 7
molecule,measurement,setting,value
"CNC(=O)O/N=C/C(C)(C)SC [Aldicarb, aldicarb]",inhibition of growth at 16 ppm,Septoria tritici,7%
"Cc1cc(C(F)(C(F)(F)F)C(F)(F)F)ccc1NC(=O)c1cccc(I)c1C(=O)NC(C)(C)CS(C)(=O)=O [Flubendiamid, flubendiamide]",Observed efficacy,"Pyricularia oryzae; 4 ppm, compound alone, day 7",0%
same,Observed efficacy,"Pyricularia oryzae; 63 ppm, compound alone, day 7",15%
same,inhibition of growth at 63 ppm,"Septoria tritici; 63 ppm, compound alone, day 7",37%
same,inhibition of growth at 63 ppm,Alternaria solani; [1],0%
same,Observed efficacy,Colletotrichum truncatum; 63 ppm,0%
same,Observed efficacy,Leptosphaerium nodorum; 63 ppm,22%
same,Observed efficacy,Fusarium culmorum; 63 ppm,3%
"Cn1cc(C(=O)Nc2ccccc2-c2cc(F)c(F)c(F)c2)c(C(F)F)n1 [Ia, N-(3′,4′,5′-trifluorobiphenyl-2-yl)-3-difluoro-methyl-1-methyl-1H-pyrazole-4-carboxamide]",Observed efficacy,"Pyricularia oryzae; 0.004 ppm, compound alone, day 7",3%
same,Observed efficacy,Septoria tritici,29%
same,Observed efficacy,Alternaria solani,29%
"COP(=O)(NC(C)=O)SC (centres unmarked) [Acephate, acephate]",inhibition of growth at 4 ppm,Septoria tritici,2%
same,inhibition of growth at 1 ppm,Alternaria solani; [2],3%
"Cc1c(COC(=O)[C@@H]2[C@H](/C=C(\Cl)C(F)(F)F)C2(C)C)cccc1-c1ccccc1 (racemic) [Bifenthrin, bifenthrin]",inhibition of growth at 63 ppm,Alternaria solani; [1],1%
"CNC(=O)CSP(=S)(OC)OC [Dimethoate, dimethoate]",inhibition of growth at 4 ppm,Septoria tritici,2%
"CC(C)C1C2CCC1c1c(NC(=O)c3cn(C)nc3C(F)F)cccc12 (centres unmarked) [Isopyrazam, isopyrazam]",Observed efficacy,Pyricularia oryzae; [3],15%
same,Observed efficacy,Septoria tritici,58%
same,Observed efficacy,Alternaria solani,2%
same,Observed efficacy,Colletotrichum truncatum; 0.25 ppm,14%
same,Observed efficacy,Leptosphaerium nodorum; 0.25 ppm,13%
abamectin,Observed efficacy,"Alternaria solani; 1 ppm, compound alone",2%
"Cc1nn(C)c(F)c1C(=O)Nc1ccccc1C(C)CC(C)C (centres unmarked) [Penflufen, N-[2-(1,3-dimethylbutyl)-phenyl]-1,3-dimethyl-5-fluor-1H-pyrazole-4-carboxamide]",Observed efficacy,Pyricularia oryzae; [4],5%
same,Observed efficacy,Septoria tritici,44%
same,Observed efficacy,Alternaria solani,0%
"COC(=O)N(C(=O)N1CO[C@@]2(C(=O)OC)Cc3cc(Cl)ccc3C2=N1)c1ccc(OC(F)(F)F)cc1 [Indoxacarb, indoxacarb]",Observed efficacy,"Pyricularia oryzae; 1 ppm, compound alone, day 7",0%
same,Observed efficacy,"Septoria tritici; 16 ppm, compound alone, day 7",9%
same,Observed efficacy,"Septoria tritici; 63 ppm, compound alone, day 7",19%
same,Observed efficacy,"Alternaria solani; 16 ppm, compound alone",0%
"CC(C)([CH2][Sn]([CH2]C(C)(C)c1ccccc1)([CH2]C(C)(C)c1ccccc1)[O][Sn]([CH2]C(C)(C)c1ccccc1)([CH2]C(C)(C)c1ccccc1)[CH2]C(C)(C)c1ccccc1)c1ccccc1 [Fenbutadin-oxyd, fenbutatin oxide]",Observed efficacy,Pyricularia oryzae,39%
"Cn1cc(C(=O)Nc2ccc(F)cc2-c2ccc(Cl)c(Cl)c2)c(C(F)F)n1 [Bixafen, bixafen]",Observed efficacy,"Pyricularia oryzae; 0.063 ppm, compound alone, day 7",6%
same,Observed efficacy,Pyricularia oryzae; [4],6%
same,Observed efficacy,Septoria tritici,48%
same,Observed efficacy,Alternaria solani,0%
same,Observed efficacy,Colletotrichum truncatum; 0.25 ppm,6%
same,Observed efficacy,Leptosphaerium nodorum; 0.25 ppm,16%
"COP(N)(=O)SC (centres unmarked) [Methamidophos, methamidophos]",inhibition of growth at 4 ppm,Septoria tritici,5%
same,inhibition of growth at 1 ppm,Alternaria solani; [2],8%
same,inhibition of growth at 63 ppm,Alternaria solani; [2],0%
"CC1(C)C(C=C(Cl)Cl)C1C(=O)OC(C#N)c1cccc(Oc2ccccc2)c1 (stereo not drawn) [alpha-Cypermethrin, alpha-cypermethrin]",Observed efficacy,"Pyricularia oryzae; 63 ppm, compound alone, day 7",41%
same,inhibition of growth at 63 ppm,Alternaria solani; [2],0%
"Cn1cc(C(=O)Nc2ccccc2C2CC2C2CC2)c(C(F)F)n1 (single isomer, unassigned) [Sedaxane (trans diastereoisomer), N-(trans-2-bicycloprop-2-ylphenyl)-3-difluoromethyl-1-methyl-1H-pyrazole-4-carboxamide]",Observed efficacy,Pyricularia oryzae; [3],1%
same,Observed efficacy,Septoria tritici; [4],57%
same,Observed efficacy,"Alternaria solani; 0.063 ppm, compound alone",0%
same,Observed efficacy,"Alternaria solani; 0.25 ppm, compound alone",20%
same,Observed efficacy,Colletotrichum truncatum; 0.25 ppm,3%
same,Observed efficacy,Leptosphaerium nodorum; 0.25 ppm,17%
same,Observed efficacy,Fusarium culmorum; 0.25 ppm,2%
"CC1(C)[C@H](C(=O)O[C@H](C#N)c2cccc(Oc3ccccc3)c2)[C@@H]1/C=C(\Cl)C(F)(F)F (racemic) [lambda-Cyalothrin, lambda-cyhalothrin]",inhibition of growth at 16 ppm,"Septoria tritici; 16 ppm, compound alone, day 7",10%
same,inhibition of growth at 63 ppm,"Septoria tritici; 63 ppm, compound alone, day 7",29%
"CC1(C)CNC(=NN=C(/C=C/c2ccc(C(F)(F)F)cc2)/C=C/c2ccc(C(F)(F)F)cc2)NC1 [Hydramethylnon, hydramethylnon]",Observed efficacy,"Pyricularia oryzae; 4 ppm, compound alone, day 7",5%
same,inhibition of growth at 16 ppm,Septoria tritici,0%
same,inhibition of growth at 63 ppm,Septoria tritici,4%
same,inhibition of growth at 1 ppm,Alternaria solani; [2],7%
"CCOP(=S)(OCC)SCSC(C)(C)C [Terbufos, terbufos]",inhibition of growth at 16 ppm,Septoria tritici,14%
"CCOCn1c(-c2ccc(Cl)cc2)c(C#N)c(Br)c1C(F)(F)F [Chlorfenapyr, chlorfenapyr]",Observed efficacy,"Pyricularia oryzae; 4 ppm, compound alone, day 7",17%
same,Observed efficacy,"Pyricularia oryzae; 63 ppm, compound alone, day 7",38%
same,inhibition of growth at 16 ppm,"Septoria tritici; 16 ppm, compound alone, day 7",8%
same,Observed efficacy,Leptosphaerium nodorum; 63 ppm,8%
"O=S1OCC2C(CO1)C1(Cl)C(Cl)=C(Cl)C2(Cl)C1(Cl)Cl (centres unmarked) [Endosulfan, endosulfan]",Observed efficacy,"Pyricularia oryzae; 16 ppm, compound alone, day 7",22%
same,Observed efficacy,"Pyricularia oryzae; 63 ppm, compound alone, day 7",73%
same,inhibition of growth at 16 ppm,Septoria tritici,3%
same,inhibition of growth at 63 ppm,Septoria tritici,26%
same,inhibition of growth at 16 ppm,Alternaria solani; [2],13%
same,Observed efficacy,Colletotrichum truncatum; 63 ppm,8%
same,Observed efficacy,Leptosphaerium nodorum; 63 ppm,5%
"CC1(C)[C@H](C(=O)O[C@H](C#N)c2cccc(Oc3ccccc3)c2)[C@@H]1C=C(Br)Br [Deltamethrin, deltamethrin]",Observed efficacy,"Pyricularia oryzae; 4 ppm, compound alone, day 7",0%
same,inhibition of growth at 16 ppm,Septoria tritici,0%
same,inhibition of growth at 63 ppm,Septoria tritici,3%
same,inhibition of growth at 1 ppm,Alternaria solani; [2],0%
same,inhibition of growth at 4 ppm,Alternaria solani; [2],5%
same,inhibition of growth at 16 ppm,Alternaria solani; [2],0%
